Data from patent publication US4794113A, “Imidazolyl phenoxy compounds and method of use” (Yamanouchi Pharmaceutical Co., Ltd., priority 1983, dated 1988).

Assays:
[1] = system: platelet aggregation induced by arachidonic acid; assay: Platelet Aggregation Prevention Activity (arachidonic acid induced, platelet rich plasma); assay type: cell-based, Nippon white rabbit; conditions: compound 100 μM; arachidonic acid final concentration 0.2 mM; rabbit PRP
Method: Platelet rich plasma (PRP) and platelet poor plasma (PPP) were prepared from venous blood of Nippon white rabbit. The platelet aggregation activity was measured in accordance with the method described in Born, G. V. R.; Nature, 194, 927 (1962) and the activity of preventing platelet agglutination of the compound against platelet aggregation induced by arachidonic acid (final concentration, 0.2 mM) was determined with an Aggrigometer (made by Payton Co.).

Hyperlipedemic rat = assay: Lipid Reducing Activity (cholesterol/bile acid fed hyperlipidemic rats, serum lipids); assay type: in vivo, male Sprague-Dawley rats; conditions: 100 mg/kg/day p.o., 4 days; for HDL-C/LDL-C (cont. = 1): relative to control; for HDL-Chol** (cont. = 1): relative to control = 1
Method: Feed containing 1.5% cholesterol and 0.5% bile acid was given to male Sprague-Dawley rats aging 4 weeks old after birth for 7 days. A suspension of the compound of the present invention in a 0.5% aqueous methyl cellulose solution was administered daily via oral catheter for 4 days. After fastening overnight, blood was collected under ether anesthesia to determine the quantities of the total HDL and cholesterol in serum. The measurements of cholesterol and HDL were performed in accordance with the method described in Schettler, G. & Hussel; Arbetsmed. Sozialmed. Praventived., 10, 25 (1975) and the method described in T. T. Ishikawa et al.; Lipids, 11, 628 (1976), respectively.

Row | Structure (SMILES) | Platelet Aggregation inhibition (%) A.A. [1] [%] | Reduction Rate of T* and Chol** (*triglyceride, **cholesterol) (Hyperlipedemic rat) [%] | HDL-C/LDL-C (cont. = 1) (Hyperlipedemic rat) | HDL-Chol** (cont. = 1) (Hyperlipedemic rat)
1 | CCOC(=O)C(C)(C)CCCCCOc1ccc(NC(=O)CCCCn2ccnc2)cc1 [Example 39] | 100 | 23 | 4.1 | 3.11
2 | CCOC(=O)C(C)(C)CCCOc1ccc(-c2csc(C)n2)cc1 [Example 5, ethyl 5-[p-(2-methyl-4-thiazolyl)phenoxy]-2,2-dimethylpentanoate] | 50 | 69 | 8.00 | 1.54
3 | CCOC(=O)C(C)(C)CCCCOc1ccc(OCCCCCn2ccnc2)cc1 [Example 30, ethyl 6-[p-[5-(1-imidazolyl)pentyloxy]phenoxy]-2,2-dimethylhexanoate] | 57 | 48 | 5.00 | 1.78
4 | CCOC(=O)C(C)(C)CCCCCOc1ccc(-c2csc(-c3cccnc3)n2)cc1 [Example 2, ethyl 2,2-dimethyl-7-[p-[2-(3-pyridyl)-4-thiazolyl]phenoxy]heptanoate] | 16 | 59 | 22 | 7.62
5 | CCOC(=O)C(C)(C)CCCCOc1ccc(NC(=O)CCCn2ccnc2)cc1 [Example 35, Ethyl-6-[p-[4-(1-imidazolyl)-butyramido]phenoxy]-2,2-dimethylhexanoate] | 7 | 52 | 5.4 | 2.49
